Values of other authors as cited in PMC8342870 (International Journal of Biological Macromolecules, 2021).

Target: SARS-CoV-2 PLpro (Severe acute respiratory syndrome coronavirus 2, UniProt P0DTD1)
Settings: previous work ref 29

Q: Which “reported rigid docking score” value does the source give for CN1C[C@H](C(=O)N[C@]2(C)O[C@@]3(O)[C@@H]4CCCN4C(=O)[C@H](Cc4ccccc4)N3C2=O)C=C2c3cccc4[nH]cc(c34)C[C@H]21 [ergotamine] here?
A: -9.2 kcal/mol
